Reference: US4767720A, “Antidigoxin antibodies” (HSC Research Development Corporation, priority 1985, dated 1988)
Entries after “also recorded” stand apart in the source; their conditions may differ.

Experiments:
[1] = system: antibodies generated against periodate-oxidized digoxin-BSA conjugate; format: binding; conditions: metabolite alone at the actual concentration of the line, actual digoxin 0
From the text: A comparison was made between the antiserum of Example 4 and the commercially available antidigoxin serum using FPIA (fluorescence polarization immuno assay) to measure the digoxin concentration for solutions containing known levels of the digoxin metabolites as identified in the following Table 3.

[2] = system: antibodies raised against ozonized digoxin-BSA; format: binding, rabbit; conditions: for competition for 3H-digoxin binding / cross reaction with the new antibody: 3H-digoxin RIA, FIG. 7a and 7b; for cross-reactivity index: calculated from the molar concentration required to reduce the 3H-digoxin binding by 50%; for Digoxin apparent value measured by [3H]digoxin RIA: metabolite alone at the actual concentration of the line, actual digoxin 0
Method: The ^3 H-digoxin radioimmunoassay method was adapted from that previously described in Cerceo E. and Elloso CA (1972) Factors Affecting the Radioimmunoassay of Digoxin, Clin. Chem. 18, 539-542. Briefly, tubes containing 0-30 ng ^3 H-digoxin (3000 dpm) in PBS were incubated at room temperature for 15 mins in the presence of 1/20 diluted antidigoxin serum. Ice cold dextran coated charcoal was added and incubated at 4° C. for 10 mins. This mixture was centrifuged and the ^3 H-digoxin remaining in the supernate was counted in a liquid scintillation spectrometer. Controls in the absence of serum and for non-immune serum were performed in parallel.
The degree of cross reactivity of the digoxin metabolites was monitored using the ^3 H-digoxin radioimmunoassay.

[3] = system: antidigoxin antibody raised against a bovine serum albumin-digoxin conjugate immunogen; conditions: background statement on prior-art antibodies; cited from earlier work
[4] = system: commercial antidigoxin antibodies raised against BSA periodate conjugated digoxin; assay: 125I-digoxin RIA using commercial antidigoxin antibodies (whole serum or affinity purified); format: binding; conditions: for Concentration Measured by RIA Using Affinity Purified Antibody: antibody affinity purified from the same immune serum; for Concentration Measured by RIA Using whole Serum: commercial antidigoxin antibodies, true concentration of antigen given
Method: Antidigoxin antibodies raised against BSA periodate conjugated digoxin were purchased from Antibodies Incorporated (Davis, Calif.) and Wien Laboratories (Succasunna, N.J.). Antidigoxin activity was determined using the ^125 I-digoxin radioimmune assay as previously described. Soldin, S; Papanastasion-Diamand, A; Heyes, J;, Lingwood C. A. and Olley, P. (1984) Are Immunoassays for Digoxin Reliable? Clin. Biochem. 17, 317-320. The immune serum was precipitated with 40% ammonium sulfate. The precipitate was redissolved and dialysed against phosphate buffered saline pH 7.4 (PBS). Antidigoxin antibodies were further purified by immunoaffinity chromatography. Digoxin was covalently linked to agarose by use of a photoactive heterobifunctional crosslinking agent as described in Lingwood, C. A. (1984) Production of Glycolipid Affinity Matrices by Use of Heterobifunctional Crosslinking Agents, J. Lipid Res. 25, 1010-1012. Amino hexyl agarose was treated with 2 mM hydroxysuccinimidyl azidobenzoate in the dark for 1 hour at room temperature. The beads were washed with water and 2 mg ^3 H-digoxin (1 mg/ml enthanol/water 1:1) was added. The beads were rotoevaporated to dryness when the digoxin was absorbed onto the beads. The dry beads were then irradiated for 2 min/1 cm from a Mineralight II UV source with stirring, when the digoxin is covalently attached to the agarose beads. The matrix was washed with 100 column volumes 50% ethanol and 50 column volumes water. The wash fractions were concentrated and unbound ^3 H-digoxin was measured. The amount of digoxin coupled/ml agarose was calculated (0.2 μmoles/ml beads).
The immunoglobulin fraction from 1 ml immune serum was applied and the digoxin column was washed with PBS. Antidigoxin activity was measured using the automated ^125 I-RIA method. […] Specific antibodies were eluted by addition of 10 ml 1M KI followed by 10 ml 1M KSCN. The eluted fractions were dialysed, concentrated vs sucrose, dialysed and used in the RIA.
Cross-reactivity of commercial antidigoxin antibodies towards the digoxin metabolites in which one, two and three sugars have been removed (digoxigenin bisdigitoxoside, monodigitoxoside and […] respectively) was measured. […] Purification of the antidigoxin antibodies by affinity chromatography considerably reduces this cross reactivity such that the metabolites are now recognized on a one to one basis relative to digoxin.

Row | SMILES | Digoxin apparent value measured by FPIA [1] [nmol/L] | competition for 3H-digoxin binding / cross reaction with the new antibody [2] | cross-reactivity index [2] [%] | Digoxin apparent value measured by [3H]digoxin RIA [2] [nmol/L] | cross-reactivity with the antibodies [3] | Concentration Measured by RIA Using Affinity Purified Antibody [4] [nmol/L] | Concentration Measured by RIA Using whole Serum [4] [nmol/L]
1 | C[C@H]1O[C@@H](O[C@H]2[C@@H](O)C[C@H](O[C@H]3[C@@H](O)C[C@H](O[C@H]4CC[C@@]5(C)[C@H](CC[C@@H]6[C@@H]5CC[C@]5(C)[C@@H](C7=CC(=O)OC7)CC[C@]65O)C4)O[C@@H]3C)O[C@@H]2C)C[C@H](O)[C@@H]1O [Digitoxin] | 9.6 | considerable reduced reactivity | 11 | 0 | – | – | –
2 | C[C@H]1O[C@@H](O[C@H]2[C@@H](O)C[C@H](O[C@H]3CC[C@@]4(C)[C@H](CC[C@@H]5[C@@H]4C[C@@H](O)[C@]4(C)[C@@H](C6=CC(=O)OC6)CC[C@]54O)C3)O[C@@H]2C)C[C@H](O)[C@@H]1O [Digoxigenin bisdigitoxide, digoxigenin bisdigitoxide] | 6.05 | – | 14.6 | 0.8 | react with the antibodies | 6.3 | 25.2
3 | C[C@H]1O[C@@H](O[C@H]2CC[C@@]3(C)[C@H](CC[C@@H]4[C@@H]3C[C@@H](O)[C@]3(C)[C@@H](C5=CC(=O)OC5)CC[C@]43O)C2)C[C@H](O)[C@@H]1O [Digoxigenin monodigitoxide] | 10 | – | 3.7 | 0.7 | react with the antibodies | 5.0 | 24.3
4 | C[C@]12CC[C@H](O)C[C@H]1CC[C@@H]1[C@@H]2C[C@@H](O)[C@]2(C)[C@@H](C3=CC(=O)OC3)CC[C@]12O [Digoxigenin] | 13.8 | ineffective antigen | – | 0 | react with the antibodies | 6.9 | 25.2
5 | C[C@]12CC[C@H](O)C[C@H]1CC[C@@H]1[C@@H]2C[C@@H](O)[C@]2(C)[C@@H](C3COC(=O)C3)CC[C@]12O (stereo partly shown) [Dihydrodigoxigenin] | – | – | – | – | little or no cross-reactivity | 0.8 | 0.8
6 | C[C@@H](O)[C@@H](O)[C@@H](O)CC=O [digitoxose] | – | does not compete for digoxin binding; also recorded: does not cross react at all | – | – | – | – | –
7 | CC1OC(OC2C(O)CC(OC3C(O)CC(OC4CCC5(C)C(CCC6C5CC(O)C5(C)C(C7=CC(=O)OC7)CCC65O)C4)OC3C)OC2C)CC(O)C1O (stereo not shown) [digoxin, Digoxin] | – | effectively competed out | – | – | – | – | –
8 | CC1OC(OC2C(O)CC(OC3C(O)CC(OC4CCC5(C)C(CCC6C5CC(O)C5(C)C(C7COC(=O)C7)CCC65O)C4)OC3C)OC2C)CC(O)C1O (stereo not shown) [dihydrodigoxin] | – | – | – | – | little or no cross-reactivity | – | –
